The test system of the experiment is patients with relapsed or refractory AML. In words: Open label, multicenter, non-comparative phase 2 clinical study of tipifarnib with gene expression profiling. Format: in vivo, human. Here is the method:
The current study was part of an open label, multicenter, non-comparative phase 2 clinical study in which patients with relapsed or refractory AML (Harousseau et al. (2003)) were treated with tipifarnib at a starting oral dose of 600 mg bid for the first 21 consecutive days of each 28-day cycle. Patients were enrolled into 2 cohorts, those with relapsed AML and those with refractory AML. A total of 252 patients (135 relapsed and 117 refractory) were treated. Eighty patients chose to provide bone marrow samples for RNA microarray analysis, for which a separate informed consent was required. […] Complete remission with incomplete platelet recovery was defined similarly, except for a platelet count less than 100,000/µL sufficient to ensure transfusion independence. Partial remission was defined as at least a 50% decrease in bone marrow blasts with partial neutrophil (>500/µL) and platelet count (>50,000/µL) recovery. Response had to be confirmed at least 4 weeks after first documentation.
The current study was an open label, multicenter, non-comparative Phase 2 study investigating the efficacy and safety of farnesyl transferase inhibition with tipifarnib administered as a single agent, at a starting oral dose of 600 mg b.i.d. for the first 21 days of each 28 day cycle in AML. Subjects were enrolled into two cohorts, those with relapsed AML and those with refractory AML. A total of 252 patients (135 relapsed and 117 refractory) were treated.

For `Cn1cncc1[C@@](N)(c1ccc(Cl)cc1)c1ccc2c(c1)c(-c1cccc(Cl)c1)cc(=O)n2C` [tipifarnib], the response rate (current patient population (10/54), stable disease patients excluded) was found to be 18%; the response rate (entire group of 58 profiled patients (14/58), response includes objective response, hematological response or stable disease) was determined as 24%; the response rate (patients with low expression of AKAP13 (8/26), stable disease patients excluded) came to 31%; the response rate (patients with low expression of the AKAP13 gene (13/30), LOOCV, 58 samples) stood at 43%; the response rate (patients with the 3-gene signature (AHR, AKAP13, MINA53) (12/25), LOOCV) stood at 48%.

The values above are taken from patent EP1612281A2, “Methods for assessing patients with acute myeloid leukemia” (Veridex, LLC, priority 2004, dated 2006).
